# Patent US9273003B2, “Methods of treating lymphoma and rheumatoid arthritis with cyclopentyl (2S)-cyclohexyl[({6-[3-(hydroxyamino)-3-oxopropyl]pyridin-3-yl}methyl)amino]acetate” (GlaxoSmithKline Intellectual Property Development Limited, priority 2006, dated 2016)
# pIC50: −log10 of the molar value. Read-outs that look alike come from different tables or passages of the source.
# Key:
# HUT78 cells = test: HUT cell inhibition assay (WST-1 cell viability); assay type: cell-based; conditions: Homo sapiens; for pIC50: HUT78 cells, IC50 allocated to ranges, read-out: HUT activity
# Method in brief: (§1)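 Log-phase cells seeded at 1000-2000/well, grown 24 h, then exposed to compound for 72-96 h before WST-1 viability readout. Eight concentrations (top 10 μM final, 3-fold steps), 6 replicates; % inhibition versus DMSO, IC50 by sigmoidal variable-slope fit.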
# HeLa cells = test: HeLa cell inhibition assay (sulphorhodamine B cell viability); assay type: cell-based; conditions: Homo sapiens, IC50 allocated to ranges
# Description: HeLa cells growing in log phase were harvested and seeded at 1000 cells/well (200 μl final volume) into 96-well tissue culture plates. Following 24 h of cell growth cells were treated with compounds (final concentration of 20 μM). Plates were then re-incubated for a further 72 h before a sulphorhodamine B (SRB) cell viability assay was conducted according to the methodology described by Skehan et al, J. Natl. Canc. Inst., 1990, 82, 1107-1112.
# Data were expressed as a percentage inhibition of the control, measured in the absence of inhibitor, as follows:— % inhibition=100−[(S^i/S^o)×100] where S^i is the signal in the presence of inhibitor and S^o is the signal in the presence of DMSO.
# IC50 values were determined by non-linear regression analysis, after fitting the results of eight data points to the equation for sigmoidal dose response with variable slope (% activity against log concentration of Compound), using Graphpad Prism software.
# U937 cells = test: U937 cell inhibition assay (WST-1 cell viability); assay type: cell-based; conditions: for pIC50: U937 cells, IC50 allocated to ranges, read-out: U937 activity
# Method in brief: as §1
# [1] = molecular target: histone deacetylase activity (HeLa nuclear extract); test: HDAC fluorescent activity assay (Fluor de Lys, Biomol); assay type: biochemical; conditions: for pIC50: IC50 allocated to ranges, read-out: HDAC activity
# Method in brief: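 HeLa nuclear extract as HDAC source incubated with acetyl-lysine Fluor de Lys substrate ± inhibitor; developer then releases fluorophore from deacetylated substrate. Activity as % of vehicle control after no-enzyme background subtraction; IC50 from eight-point variable-slope sigmoidal fit.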
SMILES,pIC50 (HUT78 cells),pIC50 (HeLa cells),"pIC50 (U937 cells; Homo sapiens, U-937)",pIC50 [1],"IC50 (HUT78 cells; HUT78 non-monocytic cell line, read-out: Inhibition of HUT78 cell proliferation (IC50-nM)) [nM]","IC50 (U937 cells; Homo sapiens, U-937, U937 monocytic cell line, read-out: Inhibition of U937 cell proliferation (IC50-nM)) [nM]","fold more potent as anti-proliferative agent than belinostat (U937 cells; monocytic cell line U937, versus belinostat) [fold]",IC50 ([1]; read-out: Inhibition of HDAC (IC50-nM)) [nM]
"CC(C)C[C@H](NCc1ccc(/C=C/C(=O)NO)cc1)C(=O)OC1CCCC1 [Example 15, Cyclopentyl N-{4-[(1E)-3-(hydroxyamino)-3-oxoprop-1-en-1-yl]benzyl}-L-leucinate]",> 6.48,5.48 to 6.48,> 6.48,> 7.00,,,,
"CC(C)C[C@H](NCc1ccc(CCC(=O)NO)cc1)C(=O)OC1CC2CCC1C2 (stereo partly drawn) [Example 36, Bicyclo[2.2.1]hept-2-yl N-{4-[3-(hydroxyamino)-3-oxopropyl]benzyl}-L-leucinate]",> 6.48,5.48 to 6.48,> 6.48,6.00 to 7.00,,,,
"O=C(/C=C/c1ccc(CN[C@H](C(=O)OC2Cc3ccccc3C2)C2CCCCC2)cn1)NO [Example 55, 2,3-Dihydro-1H-inden-2-yl (2S)-cyclohexyl[({6-[(1E)-3-(hydroxyamino)-3-oxoprop-1-en-1-yl]pyridin-3-yl}methyl)amino]acetate]",> 6.48,5.48 to 6.48,> 6.48,> 7.00,,,,
"CC(C)(C)OC[C@@H](NCc1ccc(/C=C/C(=O)NO)cc1)C(=O)OC1CCCC1 [Example 20, Cyclopentyl O-tert-butyl-N-{4-[(1E)-3-(hydroxyamino)-3-oxoprop-1-en-1-yl]benzyl}-D-serinate]",5.48 to 6.48,< 5.48,> 6.48,6.00 to 7.00,,,,
"O=C(/C=C/c1ccc(CN[C@H](C(=O)OC2CC3CCC2C3)C2CCCCC2)cc1)NO (stereo partly drawn) [Example 26, Bicyclo[2.2.1]hept-2-yl (2S)-cyclohexyl({4-[(1E)-3-(hydroxyamino)-3-oxoprop-1-en-1-yl]benzyl}amino)acetate]",5.48 to 6.48,5.48 to 6.48,> 6.48,6.00 to 7.00,,,,
"CN(C)CCOC(=O)[C@@H](NCc1ccc(/C=C/C(=O)NO)nc1)C1CCCCC1 [Example 57, 2-(Dimethylamino)ethyl (2S)-cyclohexyl[({6-[(1E)-3-(hydroxyamino)-3-oxoprop-1-en-1-yl]pyridin-3-yl}methyl)amino]acetate]",> 6.48,< 5.48,> 6.48,> 7.00,,,,
"O=C(/C=C/c1ccc(CN2CCC(CN[C@H](C(=O)OC3CCCC3)C3CCCCC3)CC2)cc1)NO [Example 83, Cyclopentyl (2S)-cyclohexyl{[(1-{4-[(1E)-3-(hydroxyamino)-3-oxoprop-1-en-1-yl]benzyl}piperidin-4-yl)methyl]amino}acetate]",> 6.48,5.48 to 6.48,5.48 to 6.48,6.00 to 7.00,,,,
"O=C(/C=C/c1ccc(OCCCN[C@H](C(=O)OC2CCCC2)C2CCCCC2)cc1)NO [Example 9, Cyclopentyl (2S)-cyclohexyl[(3-{4-[(1E)-3-(hydroxyamino)-3-oxoprop-1-en-1-yl]phenoxy}propyl)amino]acetate]",< 5.48,< 5.48,< 5.48,< 6.00,,,,
"O=C(/C=C/c1ccc(CN[C@@H](C(=O)OC2CCCC2)C2CCCCC2)cc1)NO [Example 19, Cyclopentyl (2R)-cyclohexyl({4-[(1E)-3-(hydroxyamino)-3-oxoprop-1-en-1-yl]benzyl}amino)acetate]",< 5.48,< 5.48,5.48 to 6.48,6.00 to 7.00,,,,
"O=C(/C=C/c1cccc(CN[C@H](C(=O)OC2CCCC2)C2CCCCC2)c1)NO [Example 12, Cyclopentyl (2S)-cyclohexyl({3-[(1E)-3-(hydroxyamino)-3-oxoprop-1-en-1-yl]benzyl}amino)acetate]",5.48 to 6.48,< 5.48,5.48 to 6.48,6.00 to 7.00,,,,
"CC(C)(C)OC[C@H](NS(=O)(=O)c1cccc(/C=C/C(=O)NO)c1)C(=O)OC1CCCC1 [Example 4, Cyclopentyl O-tert-butyl-N-({3-[(1E)-3-(hydroxyamino)-3-oxoprop-1-en-1-yl]phenyl}sulfonyl)-L-serinate]",5.48 to 6.48,5.48 to 6.48,5.48 to 6.48,> 7.00,,,,
"C=CCOC(=O)[C@@H](NCc1ccc(/C=C/C(=O)NO)cc1)C1CCCCC1 [Example 25, Allyl (2S)-cyclohexyl({4-[(1E)-3-(hydroxyamino)-3-oxoprop-1-en-1-yl]benzyl}amino)acetate]",5.48 to 6.48,5.48 to 6.48,> 6.48,> 7.00,,,,
"CC(C)C[C@H](NCc1ccc(CCC(=O)NO)cc1)C(=O)OCCN1CCOCC1 [Example 35, 2-Morpholin-4-ylethyl N-{4-[3-(hydroxyamino)-3-oxopropyl]benzyl}-L-leucinate]",5.48 to 6.48,< 5.48,> 6.48,< 6.00,,,,
"O=C(/C=C/c1cccc(C(=O)N[C@H](C(=O)OC2CCCC2)C2CCCCC2)c1)NO [Example 5, Cyclopentyl (2S)-cyclohexyl({3-[(1E)-3-(hydroxyamino)-3-oxoprop-1-en-1-yl]benzoyl}amino)acetate]",5.48 to 6.48,5.48 to 6.48,5.48 to 6.48,> 7.00,,,,
"CC(C)C[C@H](NC(=O)c1ccc(/C=C/C(=O)NO)cc1)C(=O)OC1CCCC1 [Example 8, Cyclopentyl N-{4-[(1E)-3-(hydroxyamino)-3-oxoprop-1-en-1-yl]benzoyl}-L-leucinate]",5.48 to 6.48,5.48 to 6.48,5.48 to 6.48,6.00 to 7.00,,,,
"CC(C)C[C@H](NCc1ccc(CCC(=O)NO)cc1)C(=O)OCCN(C)C [Example 38, 2-(Dimethylamino)ethyl N-{4-[3-(hydroxyamino)-3-oxopropyl]benzyl}-L-leucinate]",< 5.48,< 5.48,5.48 to 6.48,6.00 to 7.00,,,,
"CC(C)C[C@H](NCc1ccc(CCC(=O)NO)cc1)C(=O)OC1Cc2ccccc2C1 [Example 37, 2,3-Dihydro-1H-inden-2-yl N-{4-[3-(hydroxyamino)-3-oxopropyl]benzyl}-L-leucinate]",> 6.48,5.48 to 6.48,> 6.48,6.00 to 7.00,,,,
"O=C(/C=C/c1cccc(S(=O)(=O)N[C@H](C(=O)OC2CCCC2)c2ccccc2)c1)NO [Example 1, cyclopentyl (2S)-[({3-[(1E)-3-(hydroxyamino)-3-oxoprop-1-en-1-yl]phenyl}sulfonyl)amino](phenyl)acetate]",< 5.48,< 5.48,< 5.48,6.00 to 7.00,,,,
"CC(C)(C)OC[C@H](NCc1ccc(/C=C/C(=O)NO)cc1)C(=O)OC1CCCC1 [Example 16, Cyclopentyl O-tert-butyl-N-{4-[(1E)-3-(hydroxyamino)-3-oxoprop-1-en-1-yl]benzyl}-L-serinate]",5.48 to 6.48,< 5.48,5.48 to 6.48,6.00 to 7.00,,,,
"O=C(/C=C/c1ccc(CN[C@H](C(=O)OC2CCCC2)C2CCCCC2)cc1)NO [Example 14, Cyclopentyl (2S)-cyclohexyl({4-[(1E)-3-(hydroxyamino)-3-oxoprop-1-en-1-yl]benzyl}amino)acetate]",> 6.48,5.48 to 6.48,> 6.48,> 7.00,230,5,30,59
"O=C(/C=C/c1ccc(C(=O)N[C@H](C(=O)OC2CCCC2)C2CCCCC2)cc1)NO [Example 7, Cyclopentyl (2S)-cyclohexyl({4-[(1E)-3-(hydroxyamino)-3-oxoprop-1-en-1-yl]benzoyl}amino)acetate]",5.48 to 6.48,< 5.48,5.48 to 6.48,6.00 to 7.00,,,,
